Where “and” joins values, the source holds several entries; their conditions need not be identical. Identical values can stand only once.
Legend:
Assay type in all cases: in vivo
Conditions in all cases: single active compound
[1] = system: Phaedon cochleariae larvae; test: Phaedon cochleariae larvae test (cabbage leaf dip)
Source text: (§1) The expected action for a given combination of two active compounds can be calculated as follows, according to S. R. Colby, Weeds 15 (1967), 20-22: • If • X is the kill rate, expressed as a percentage of the untreated control, when employing active compound A at an application rate of m g/ha or in a concentration of m ppm, • Y is the kill rate, expressed as a percentage of the untreated control, when employing active compound B at an application rate of n g/ha or in a concentration of n ppm and • E is the kill rate, expressed as a percentage of the untreated control, when employing active compounds A and B at application rates of m and n g/ha or in a concentration of m and n ppm, • then [formula] If the actual insecticidal kill rate exceeds the calculated value, the kill of the combination is superadditive, i.e. a synergistic effect is present. In this case, the actually observed kill rate must exceed the value calculated using the above formula for the expected kill rate (E).
phaedon cochlearise Larvae Teast
(§2) To produce a suitable preparation of active compound, 1 part by weight of active compound is mixed with the stated amounts of solvent and emulsifier, and the concentrate is diluted with emulsifier-containing water to the desired concentration.
Cabbage leaves (Brassica oleracea) are treated by being dipped into the preparation of active compound of the desired concentration and are populated with […] (Phaedon cochleariae) while the leaves are still moist.
(§3) After the desired period of time, the kill in % is determined. 100% means that all caterpillars have been killed; 0% means that none of the caterpillars have been killed. The determined kill rates are entered into Colby's formula (see sheet 1).

[2] = system: caterpillars of the cotton bollworm (Heliothis armigera); test: Heliothis armigera test (cabbage leaf dip)
Source text: as §1, §2
Cabbage leaves (Brassica oleracea) are treated by being dipped into the preparation of active compound of the desired concentration and are populated with caterpillars of the cotton bollworm (Heliothis armigera) while the leaves are still moist.
as §3

[3] = system: caterpillars of the beet armyworm (Spodoptera exigua); test: Spodoptera exigua test (cabbage leaf dip)
Source text: as §1
The produce a suitable preparation of active compound, 1 part by weight of active compound is mixed with the stated amounds of solvent and emulsifier, and the concentrate is diluted with emulsifier-containing water to the desired concentration. […]
After the desired period of time, the kill in % is determined. […] The determined kill rates are entered into Colby's formula (see sheet 1)

What does the source list for `CC1(C)[C@H](C(=O)O[C@H](C#N)c2cccc(Oc3ccccc3)c2)[C@@H]1C=C(Br)Br` [deltamethrin]?
Kill in % after 6 d ([1]; 0.16 ppm): 50%; Kill in % after 3 d ([2]; 0.032 ppm): 10%

For `CC1(C)C(/C=C(\Cl)C(F)(F)F)C1C(=O)OC(C#N)c1cccc(Oc2ccccc2)c1` (stereo not drawn) [lambda-cyhalothrin], which “Kill in % after 3 d” value ([1]; 0.16 ppm) is on record?
Its value is 15%.

Which “Kill in % after 6 d” value ([2]; 0.16 ppm) does the source give for `CC1(C)C(C=C(Cl)Cl)C1C(=O)OCc1cccc(Oc2ccccc2)c1` (stereo not drawn) [permethrin] here?
The value was 15%.

And the “Kill in % after 6 d” value ([3]; 0.16 ppm)?
The value was 0%.

`O=C(NC(=O)c1ccccc1Cl)Nc1ccc(OC(F)(F)F)cc1` [triflumuron] was tested. Which “Kill in % after 3 d” value ([1]; 4 ppm) did it give?
The value was 25% and 35%.

And the “Kill in % after 6 d” value ([1]; 4 ppm)?
Its value is 65%.

What about the “Kill in % after 3 d” value ([2]; 0.8 ppm) of the same compound?
The value was 0%.

What about the “Kill in % after 6 d” value ([2]; 4 ppm) of the same compound?
Its value is 0%.

And the “Kill in % after 6 d” value ([3]; 4 ppm)?
The value was 20%.

With `CC1(C)C(C=C(Cl)Cl)C1C(=O)OC(C#N)c1ccc(F)c(Oc2ccccc2)c1` (stereo not drawn) [β-cyfluthrin] as the compound, how does the “Kill in % after 3 d” value ([1]; 0.16 ppm) read?
The value was 15%.

What about the “Kill in % after 6 d” value ([2]; 0.16 ppm) of the same compound?
Its value is 65%.

— patent US20070213396A1, “Active Substance Combinations Having Insecticidal Properties” (BAYER CROPSCIENCE AG, priority 2004, published 2007)
